Target: T1, CD209 antigen (Homo sapiens, UniProt Q9NNX6)
T1 sequence (Q9NNX6 whole entry): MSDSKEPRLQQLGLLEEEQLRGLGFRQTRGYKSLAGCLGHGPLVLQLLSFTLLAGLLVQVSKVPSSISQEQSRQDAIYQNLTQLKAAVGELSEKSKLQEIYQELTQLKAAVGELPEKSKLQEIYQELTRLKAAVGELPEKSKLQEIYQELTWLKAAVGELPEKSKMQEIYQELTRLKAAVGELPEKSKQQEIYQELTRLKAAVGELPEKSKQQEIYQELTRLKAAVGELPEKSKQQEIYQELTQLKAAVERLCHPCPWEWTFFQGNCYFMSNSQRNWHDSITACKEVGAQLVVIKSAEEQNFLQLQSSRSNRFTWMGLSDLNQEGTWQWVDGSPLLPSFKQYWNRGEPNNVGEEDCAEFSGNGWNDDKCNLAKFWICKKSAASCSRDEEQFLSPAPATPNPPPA
Experiment: Binding affinity to DC-SIGN (unknown origin)

| Kd [mM] | Structure (SMILES) |
| --- | --- |
| 8.7 | CC(=O)N[C@H](C=O)[C@@H](O)[C@H](O)[C@H](O)CO |
| 6.7 | C[C@H](O)[C@@H](O)[C@@H](O)[C@H](O)C=O [L-FUCOSE] |

From ChEMBL document CHEMBL3132751, “Crafting precise multivalent architectures” (Medchemcomm, 2013)
